Assay [1] relates to human-derived mesenchymal stem cells, control cells (P5) subcultured to P10. In words: Doubling time by CCK-8 assay at P10 after treatment at each passage. To be noted: 160 μM for 24 hours at each passage, at P10, CCK-8. The assay is classed as cell-based. The procedure:
(§1) Example 8. Confirmation Of anti-senescence efficacy by treating various human tissue-derived mesenchymal stem cells with nervonic acid Human-derived mesenchymal stem cells were treated with nervonic acid (160 μM) at each passage during cell culture from control cells (P5) to P10 to determine whether continuous treatment with nervonic acid during cell culture at early passage numbers was able to delay cellular senescence.
Specifically, from the day after human-derived mesenchymal stem cells were subcultured, treatment with 160 μM nervonic acid or an equivalent amount of DMSO (control) for 24 hours was performed, followed by replacement with the existing culture medium the next day. The above process was repeated to perform subculture up to P10 (passage 10). As such, B galactosidase staining for measuring cellular senescence was performed at P7, P8, P9, and P10, and cell doubling time and RNA extraction for qRT-PCR were both performed at P10. A more specific procedure therefor was carried out in the same manner as described above.
Also, the doubling time of the control group (DMSO) and the nervonic acid treatment group was measured using CCK (cell counting kit)-8 assay.

The test system of assay [2] is senescence markers P16 and P21. In words: qRT-PCR of senescence markers p16 and p21 at P10 after treatment at each passage. The assay is classed as cell-based, human. The conditions noted are these: 160 μM for 24 hours at each passage. The method, then:
Specifically, qRT-PCR performed in this example is as follows: after treating the replicative senescence model (P18) with nervonic acid for 3 days, total RNA was extracted using Trizol (Invitrogen, MA, USA) according to the method provided by the vendor. After quantifying the extracted total RNA, random hexamer and dNTP were added, and PCR was performed at 65° C. for 5 minutes. 5× SSIV buffer, 100 mM DTT, RNAse OUT, and Superscript IV RT were added and reverse transcription was performed to synthesize cDNA, and then qRT-PCR was performed to measure gene expression, and the expression levels were compared through 2^−ΔΔCt analysis.
as §1
Specifically, from the day after human-derived mesenchymal stem cells were subcultured, treatment with 160 μM nervonic acid or an equivalent amount of DMSO (control) for 24 hours was performed, followed by replacement with the existing culture medium the next day. The above process was repeated to perform subculture up to P10 (passage 10). […]

Assay [3] relates to human placenta-derived mesenchymal stem cells (PL-MSCs/passage 18). In words: β-galactosidase staining, senescent PL-MSCs. The assay is classed as cell-based. The conditions noted are these: PL-MSCs passage 18, 3 days. The source says: Human placenta-derived mesenchymal stem cells (pl-mscs) Were Isolated From Placentas Separated according to the previously reported method of Choi et al. (PLOS ONE, (2017) 12 (2): e0172642), umbilical cord blood-derived mesenchymal stem cells (UCB-MSCs) were isolated from the umbilical cord blood separated according to the method of Kim et al. (FEBS Letters, (2010) 584:3601-3608), and adipose tissue-derived mesenchymal stem cells (AD-MSCs) were isolated from adipose tissue separated according to the previously reported method of Palumbo et al. (Int. J. Mol. Sci. (2018) 19:1987).
Each of the obtained mesenchymal stem cells was subcultured in aMEM (a-modified Minimum Essential Media) containing 10% fetal bovine serum (FBS) and 0.5% gentamicin (10 mg/ml).
The replicative senescence models of human adipose-derived mesenchymal stem cells (AD-MSCs/passage 18), human bone marrow-derived mesenchymal stem cells (BM-MSCs/passage 15), human umbilical cord blood-derived mesenchymal stem cells (UCB-MSCs/passage 16), and human placenta-derived mesenchymal stem cells (PL-MSCs/passage 18) established as described above were treated with nervonic acid for 3 days, and β-galactosidase staining was performed to observe the extent of senescence.

The test system of assay [4] is MyHC (myosin heavy chain), a marker of muscle regeneration, in muscle tissue. In words: MyHC immunohistochemical staining in muscle tissue of muscle disease mouse model after injection of treated P18 cells. To be noted: P18 cells treated with 160 μM for 72 hours, injected via tail vein, mdx mouse, one week after injection. The assay is classed as in vivo. The procedure:
Specifically, the muscle disease mouse model used was C57BL/10ScSn-Dmdmdx/J (mdx mouse) , and C57BL/10J with the same genetic background was used as a control group. All experiments were conducted using mice aged 4 to 5 months. The cells to be injected were human umbilical cord-derived young mesenchymal stem cells (control group) (P5) and replicative senescence model (P18). More specifically, the replicative senescence model (P18) was treated with 160 μM nervonic acid or an equivalent amount of DMSO for 72 hours during culture at P18 and then dissociated as single cells with 0.25% Trypsin/EDTA (Gibco, MT, USA), and 5×10^4 cells per mouse were injected via the tail vein. One week after injection, both tibial muscles of the mouse model were harvested and fixed in 4% paraformaldehyde or frozen.
Example 10. […]
In order to assess the extent of muscle regeneration in the muscle tissue of a muscle disease mouse model after injecting mesenchymal stem cells for each condition, the extent of muscle regeneration in the tissue was determined through immunohistochemical staining for MyHC (myosin heavy chain), a marker of muscle regeneration. […]

For assay [5], the system named is senescence markers P16 and P21. In words: Western blotting of P16 and P21 in replicative senescence model (P18). The assay is classed as cell-based, human. The conditions noted are these: 160 μM. The procedure: In order to verify the anti-senescence efficacy of nervonic acid, the expression levels of senescence-related markers in a control group (P5) and a replicative senescence model (P18) were measured after treatment with nervonic acid (160 μM).
Specifically, Western blotting performed in this example is as follows: cells were collected, and the cell membrane was broken using RIPA buffer, followed by centrifugation to collect the supernatant. Intracellular proteins were quantified using the Bradford assay (Bio-Rad, USA), and 20 μg of protein for each sample was loaded onto the gel, followed by electrophoresis using SDS. After transferring the protein to a polyvinylidene fluoride (PVDF) membrane, 1× TBST (Tris-buffered saline with 0.1% Tween 20) solution containing 5% skim milk (BD Difco, USA) was added and incubated at room temperature for 1 hour. Thereafter, P16 (1: 1000, Cell Signaling, USA), P21 (1: 1000, Cell Signaling, USA), and β-actin (1:5000; Santa Cruz, USA) antibodies were added and incubated overnight at 4° C. Then, the secondary antibody (anti-rabbit IgG-HRP; ABClon, Korea) was added and incubated at room temperature for one hour. Afterwards, the blots were visualized using ECL (Bio-Rad, USA) and assessed.

These results are taken from patent publication US20260226417A1, “METHOD FOR INHIBITING AGING OF STEM CELLS” (ENCELL CO., LTD, priority 2023, published 2026).

Consider `CCCCCCCC/C=C\CCCCCCCCCCCCCC(=O)O` [nervonic acid], for which the doubling time in assay [1] came out at 24.7 h. In addition, in assay [2], the “p16 mRNA expression, fold compared to control group (DMSO)” value amounted to 0.84±0.05 fold and the “p21 mRNA expression, fold compared to control group (DMSO)” value is reported as 0.84±0.03 fold. For the same molecule, in assay [3], the “progression of senescence (β-galactosidase staining) compared to control group (DMSO)” value is “progression of senescence was significantly inhibited”. The “MyHC expression level (immunohistochemical staining) compared to injection group treated with DMSO” value in assay [4] is given as “slightly increased”. The “P16 protein expression level, fold compared to before treatment” value in assay [5] was 0.65±0.07 fold. Moreover, the “P21 protein expression level, fold compared to before treatment” value in assay [5] (not significant) came to 0.82±0.07 fold.
